Experimental data as given in patent US4783462A, “3(2H)pyridazinone, and anti-allergic agent containing it” (Nissan Chemical Industries Ltd., priority 1985, dated 1988).

Key:
ddY strain male mice = assay: Acute toxicity test, Test method-(2), intraperitoneal; type: in vivo; details: 7 days
Protocol: The lethal ratio was determined in ddY strain male mice (4 weeks old) at 7 days after the intraperitoneal injection of test compounds.

LTD4 [1] = assay: LTD4 antagonism in isolated guinea-pig trachea with indomethacin, Test method (ii) (Table 4); type: cell-based; details: Cavia porcellus, 0.5 h, LTD4 2×10^-8 g/ml, test compound 10^-6 g/ml, 30 min prior, 5 μmol indomethacin
Protocol: (ii) LTD4 antagonism in guinea-pig trachea
Antagonism for LTD4 was determined in isolated guinea-pig trachea prepared as spiral strip. Tracheal preparations were suspended under 1 g tension in 10 ml organ baths containing 5 μmol of indomethacin and they were incuated for 1 hr prior to use. Contractile responses to LTD4 (2×10^-8 g/ml) were obtained after the maximal response to histamine (10^-4 M). Test compounds dissolved in 100% dimethyl sulfoxide were added to the organ baths (final concentration of 10^-6 g/ml) 30 min prior to LTD4 addition, and then contractile responses to LTD4 were compared with those of control which was obtained from a paired trachea in the absence of test compounds. LTD4 -induced contractions were expressed as a percentage of the maximal response to histamine. The antagonism was determined as follows:
(§1) Antagonism (%)=(1.0-% contraction in test/% contraction in […]

[2] = test system: anaphylactic bronchoconstriction in passively sensitized guinea-pig; assay: Effect on anaphylactic bronchoconstriction in passively sensitized guinea-pig; type: in vivo; details: 2 mg/kg i.v.
Protocol: (iii) Effect on anaphylactic bronchoconstriction in passively sensitized guinea-pig
Male guinea-pigs (350-450 g) were passively sensitized with intravenous (i.v.) injection of 0.125 ml rabbit anti-EA (egg albumin) serum (Cappel Laboratories) 1 day preceding the experiment. […] Sensitized guinea-pigs were anaesthetized with intraperitoneal injection of urethane (1.5 g/kg). The right jugular vein was cannulated for the administration of the all agents and trachea was cannulated to record total pulmonary resistance. Guinea-pigs were artificially ventilated by a small animal respirator (Shinano, Model SN-480-7) set at a stroke volume of 5 ml and a rate of 50 breaths per min. […] The increase in air overflow volume was expressed as a percentage of the maximum bronchoconstriction obtained by clamping off the trachea. Following surgical preparation, the animals were pretreated with indomethacin (1.0 mg/kg, 10 min), pyrilamine (2 mg/kg, 6 min) and propranolol (0.1 mg/kg, 5 min) prior to the EA challenge (0.1 or 10 mg/kg). All test compounds, 2 mg/kg in 3% Tween 80 or 3% PEG-400, were administered 1 min before the EA challenge. Inhibition (%) of bronchoconstriction was determined as follows: Inhibition (%)=(1.0%-maximum bronchoconstriction in test/% maximum bronchoconstriction in control)×100. The maximum bronchoconstriction was obtained within 20 min after the EA challenge.
In the Table, the dose of EA was 10 mg/kg, and each compound was dissolved or suspended in 3% Tween 80.
The dose of EA was 0.1 mg/kg.

LTC4 = assay: Antagonism in isolated guinea-pig trachea, Test method (i) (Table 3, given as LTC4 antagonism); type: cell-based; details: test compound 10^-5 g/ml, given as LTC4 antagonisms, 5 min; for inhibition at 10 µg/mL: Cavia porcellus
Protocol: (§2) (i) LTC4 and LTD4 antagonisms in guinea-pig trachea
(§3) Antagonisms for LTC4 and LTD4 were determined in isolated guinea-pig trachea prepared as spiral strip. Tracheal preparations were suspended under 1 g tension in 10 ml organ baths and they were incubated for 1 hr prior to use. Contractile responses to LTC4 (2×10^-8 g/ml) and LTD4 (2×10^-8 g/ml) were obtained after the maximal response to histamine (10^-4 M). Test compounds dissolved in 100% dimethyl sulfoxide were added to the organ baths (final concentration of 10^-5 g/ml or 10^-6 g/ml) 5 min prior to LTC4 and LTD4 addition, and then contractile responses to LTC4 and LTD4 were compared with those of control which was obtained from a paired trachea in the absence of test compounds. LTC4 - and LTD4 -induced contractions were expressed as a percentage of the maximal response to histamine. The antagonism was determined as follows:
as §1

LTD4 [3] = assay: LTD4 antagonism in isolated guinea-pig trachea, Test method (i) (Table 4, values with asterisk); type: cell-based; details: Cavia porcellus, 5 min, test compound 10^-6 g/ml, 5 min prior
Protocol: as §2, §3, §1

[4] = Table 5-(2), EA 0.1 mg/kg, Tween 80
[5] = Table 5-(2), EA 0.1 mg/kg, PEG-400
[6] = Table 5-(1), EA 10 mg/kg, 3% Tween 80

SMILES	inhibition at 1 µg/mL (LTD4 [1]) [%]	inhibition at 10 µg/mL (LTC4) [%]	also measured
CCCc1cc(C(=O)O)ccc1OCCCNc1cnn(C(C)C)c(=O)c1Cl [Compound No. 41, 4-chloro-5-[3-(2-n-propyl-4-carboxyphenoxy)propylamino]-2-i-propyl-3(2H)pyridazinone]	82	–	Lethal ratio (Death number/Experimental number) (ddY strain male mice; 200 mg/kg intraperitoneal): 0/2; Inhibition (%) [2, 4]: 31%; Antagonism (%) (LTC4): 100%
CCCc1cc(C(N)=O)ccc1OCCCNc1cnn(C(C)C)c(=O)c1Cl [Compound No. 42, 4-Chloro-5-[3-(2-n-propyl-4-carbamoylphenoxy)propylamino]-2-i-propyl-3(2H)pyridazinone]	76	95	Lethal ratio (Death number/Experimental number) (ddY strain male mice; 200 mg/kg intraperitoneal): 0/2; Lethal ratio (Death number/Experimental number) (ddY strain male mice; 400 mg/kg intraperitoneal): 0/1; Inhibition (%) [2, 5]: 31%
CCCc1cc(C(=O)OC)ccc1OCCCNc1cnn(C(C)C)c(=O)c1Cl [Compound No. 44, 4-choloro-5-[3-(2-n-propyl-4-methoxycarbonylphenoxy)propylamino]-2-i-propyl-3(2H)pyridazinone]	63	90	Lethal ratio (Death number/Experimental number) (ddY strain male mice; 200 mg/kg intraperitoneal): 0/1; Lethal ratio (Death number/Experimental number) (ddY strain male mice; 400 mg/kg intraperitoneal): 0/1
CCCc1cc(C(=O)OCC)ccc1OCCCNc1cnn(C(C)C)c(=O)c1Cl [Compound No. 64, 4-chloro-5-[3-(2-n-propyl-4-ethoxycarbonylphenoxy)propylamino]-2-i-propyl-3(2H)pyridazinone]	–	87	Inhibition (%) [2, 4]: 56%
CCCc1cc(C(=O)O)ccc1OCCCNc1cnn(C(C)C)c(=O)c1Cl [Compound No. 67]	–	99	Inhibition (%) [2, 4]: 62%
CCc1cc(C#N)ccc1OCCCNc1cnn(C(C)C)c(=O)c1Cl [Compound No. 98]	80	89	–
CCCCc1cc(C(=O)O)ccc1OCCCNc1cnn(C(C)C)c(=O)c1Br [Compound No. 127]	–	–	inhibition at 1 µg/mL (LTD4 [3]): 91%
CCCc1cc(C(=O)OC)ccc1OCC(=O)CNc1cnn(C(C)C)c(=O)c1Cl [Compound No. 161, 4-Chloro-5-[3-(2-n-propyl-4-methoxycarbonylphenoxy)-2-oxopropylamino]-2-i-propyl-3(2H)pyridazinone]	–	71	Inhibition (%) [2, 4]: 20%
COc1cccc(OCCCOc2cnn(C(C)(C)C)c(=O)c2Cl)c1 [compound 27]	–	65	Lethal ratio (Death number/Experimental number) (ddY strain male mice; 100 mg/kg intraperitoneal): 0/2; Lethal ratio (Death number/Experimental number) (ddY strain male mice; 200 mg/kg intraperitoneal): 0/2; Inhibition (%) [2, 6]: 23%
CCn1ncc(OCCCOc2cccc(OC)c2)c(Cl)c1=O [compound 28]	–	61	Lethal ratio (Death number/Experimental number) (ddY strain male mice; 200 mg/kg intraperitoneal): 0/2; Lethal ratio (Death number/Experimental number) (ddY strain male mice; 400 mg/kg intraperitoneal): 0/1; Inhibition (%) [2, 6]: 17%
CCCc1cc(C(=O)OC)ccc1OCCCNc1cnn(C)c(=O)c1Cl [compound 43]	–	63	Inhibition (%) [2, 6]: 24%
CCCc1cc(C#N)ccc1OCCCNc1cnn(CC)c(=O)c1Cl [compound 47]	–	99	Lethal ratio (Death number/Experimental number) (ddY strain male mice; 200 mg/kg intraperitoneal): 0/2; Lethal ratio (Death number/Experimental number) (ddY strain male mice; 400 mg/kg intraperitoneal): 0/2; Inhibition (%) [2, 6]: 28%
CCOc1ccccc1OCCCNc1cnn(CC)c(=O)c1Cl [compound 51]	–	82	Inhibition (%) [2, 6]: 15%
COc1ccc(CCNc2cnn(C(C)C)c(=O)c2Cl)cc1 [compound 55]	–	72	Inhibition (%) [2, 6]: 26%
CCCc1cc(C#N)ccc1OCCCNc1cnn(C(C)C)c(=O)c1Cl [compound 60]	–	98	Inhibition (%) [2, 6]: 15%
CCCc1cc(C#N)ccc1OCCCOc1cnn(CC)c(=O)c1Cl [compound 65]	–	98	Inhibition (%) [2, 4]: 27%
CCOc1ccccc1OCCCNc1cnn(C(C)C)c(=O)c1Cl [compound 71]	–	88	Inhibition (%) [2, 4]: 26%
CCCc1cc(C(=O)O)ccc1OCCCN(C)c1cnn(C(C)C)c(=O)c1Cl [compound 74]	–	73	Inhibition (%) [2, 4]: 50%
CCCc1cc(C(=O)OC)ccc1OCCCOc1cnn(C(C)C)c(=O)c1Cl [compound 85]	–	78	Inhibition (%) [2, 4]: 23%
CCc1cc(C(N)=O)ccc1OCCCNc1cnn(C(C)C)c(=O)c1Cl [compound 102]	–	93	Inhibition (%) [2, 5]: 73%
CCn1ncc(NCCCOc2ccc(C(=O)OC)cc2C(C)C)c(Cl)c1=O [compound 103]	–	93	Inhibition (%) [2, 5]: 69%
CCCc1cc(OC)ccc1OCCCNc1cnn(C(C)C)c(=O)c1Cl [compound 105]	52	89	–

SMILES	inhibition at 1 µg/mL (LTD4 [1]) [%]	inhibition at 10 µg/mL (LTC4) [%]	also measured
CCCc1cc(O)ccc1OCCCNc1cnn(C(C)C)c(=O)c1Cl [compound 109]	69	99	–
CCCCc1cc(C(=O)OC)ccc1OCCCNc1cnn(CC)c(=O)c1Cl [compound 111]	79	87	–
CCCCc1cc(C(=O)O)ccc1OCCCNc1cnn(CC)c(=O)c1Cl [compound 113]	54	100	–
CCCCc1cc(C(N)=O)ccc1OCCCNc1cnn(CC)c(=O)c1Cl [compound 115]	61	94	–
CCCc1cc(C(=O)O)ccc1OCCCNc1cnn(C(C)C)c(=O)c1Br [compound 125]	84	–	–
CCCc1cc(OC)ccc1OCCCNc1cnn(CC)c(=O)c1Br [compound 135]	57	–	–
CCc1cc(OC)ccc1OCCCNc1cnn(CC)c(=O)c1Br [compound 137]	53	–	–
CCCc1cc(C(=O)OC)ccc1OCC(CNc1cnn(C(C)C)c(=O)c1Cl)OC (stereo not drawn) [compound 162]	–	81	Inhibition (%) [2, 4]: 49%
CCCc1cc(C(=O)O)ccc1OCC(CNc1cnn(C(C)C)c(=O)c1Cl)OC (stereo not drawn) [compound 163]	–	74	Inhibition (%) [2, 4]: 32%
CCCc1cc(C(=O)OC)ccc1OCC(CN(C)c1cnn(C(C)C)c(=O)c1Cl)OC (stereo not drawn) [compound 164]	–	71	Inhibition (%) [2, 4]: 40%
CCCCc1cc(C(=O)OC)ccc1OCCCNc1cnn(CC)c(=O)c1Br [compound 178]	69	–	–
CCCCc1cc(C(=O)O)ccc1OCCCNc1cnn(CC)c(=O)c1Br [compound 179]	63	–	–
CCCc1cc(O)ccc1OCCCNc1cnn(CC)c(=O)c1Br [compound 197]	82	–	–
CCCc1cc(O)ccc1OCCCNc1cnn(C(C)C)c(=O)c1Br [compound 198]	86	–	–
CCc1cc(C=O)ccc1OCCCNc1cnn(CC)c(=O)c1Br [compound 199]	65	–	–
CCc1cc(C=O)ccc1OCCCNc1cnn(C(C)C)c(=O)c1Br [compound 200]	81	–	–
CCCCCc1cc(C(=O)O)ccc1OCCCNc1cnn(CC)c(=O)c1Cl [compound 202]	89	–	–
CCCCCc1cc(C(N)=O)ccc1OCCCNc1cnn(CC)c(=O)c1Cl [compound 203]	94	–	–
CCCCCc1cc(C(=O)OC)ccc1OCCCNc1cnn(CC)c(=O)c1Br [compound 204]	95	–	–
CCCCCc1cc(C(=O)O)ccc1OCCCNc1cnn(CC)c(=O)c1Br [compound 205]	96	–	–
CCC(C)c1cc(C(=O)O)ccc1OCCCNc1cnn(CC)c(=O)c1Br (stereo not drawn) [compound 218]	84	–	–
